Measured values: US20110318768A1, “METHOD FOR DETERMINING SENSITIVITY OF TUMOR CELLS TO TYROSINE KINASE INHIBITOR AND COMPUTER PROGRAM PRODUCT” (SYSMEX CORPORATION, priority 2010, published 2011)
pIC50: −log10 of the molar value. Where two headings read alike, the source gives them in different places.

Columns and labels:
MCF7 = conditions: Konecny et al.; cited from earlier work
SK-Br-3 = conditions: Konecny et al.; cited from earlier work
BT-474 = conditions: Konecny et al.; cited from earlier work
T47D = conditions: Konecny et al.; cited from earlier work
[1] = system: HS578T breast cancer cell line; assay: Growth inhibition by lapatinib (Cell Titer-Glo); type: cell-based; conditions: Homo sapiens, Hs-578T
Method: (§1) The sensitivity of cell lines to EGFR/HER2 inhibitor was examined by culturing breast cancer cell lines shown in Table 3 in the presence of EGFR/HER2 inhibitor and examining growth inhibition effects on the cell lines.
(§2) The breast cancer cell lines shown in Table 3 were seeded in a 96 well assay plate (#3917: Costar) at 4,000 cells/well, and cultured at 37° C. After 24 hours, the medium was changed to a medium containing a DMSO solution of lapatinib ditosylate hydrate (hereafter also referred to as lapatinib; #L-4804: LC Laboratories) with various concentrations, and the culture was continued at 37° C. for 72 hours. The concentrations of lapatinib in the medium were 0 (control), 0.1, 1, 10, 30, 100, 300, 1,000 and 3,000, and 10,000 nM. The concentration of DMSO in the medium is constant (0.1 (v/v) %) in all of the wells. The cell number in the wells at 0 and 72 hours after exchange of the medium was measured using Cell Titer-Glo Luminescent Cell Viability Assay (#G7571: Promega KK.). The lapatinib concentration to yield half the cell number of the control in 72 hours was determined by fitting with a logistic curve and the concentration was IC50. The cell line whose IC50 was less than 1 μM was defined as a “sensitive line”, while the cell line whose IC50 was 1 μM or more was defined as an “insensitive line”.

[2] = system: MDA-MB-435S breast cancer cell line; assay: Growth inhibition by lapatinib (Cell Titer-Glo); type: cell-based; conditions: Homo sapiens
Method: as §1, §2

[3] = system: ZR-75-1 breast cancer cell line; assay: Growth inhibition by lapatinib (Cell Titer-Glo); type: cell-based; conditions: Homo sapiens
Method: as §1, §2

[4] = system: T-47D breast cancer cell line; assay: Growth inhibition by lapatinib (Cell Titer-Glo); type: cell-based; conditions: Homo sapiens, T47D
Method: as §1, §2

[5] = system: ZR-75-30 breast cancer cell line; assay: Growth inhibition by lapatinib (Cell Titer-Glo); type: cell-based; conditions: Homo sapiens
Method: as §1, §2

[6] = system: BT-549 breast cancer cell line; assay: Growth inhibition by lapatinib (Cell Titer-Glo); type: cell-based; conditions: Homo sapiens
Method: as §1, §2

[7] = system: MDA-MB-453 breast cancer cell line; assay: Growth inhibition by lapatinib (Cell Titer-Glo); type: cell-based; conditions: Homo sapiens
Method: as §1, §2

[8] = system: BT-20 breast cancer cell line; assay: Growth inhibition by lapatinib (Cell Titer-Glo); type: cell-based; conditions: Homo sapiens
Method: as §1, §2

[9] = system: BT-483 breast cancer cell line; assay: Growth inhibition by lapatinib (Cell Titer-Glo); type: cell-based; conditions: Homo sapiens
Method: as §1, §2

[10] = system: HCC1806 breast cancer cell line; assay: Growth inhibition by lapatinib (Cell Titer-Glo); type: cell-based; conditions: Homo sapiens
Method: as §1, §2

[11] = system: HCC1569 breast cancer cell line; assay: Growth inhibition by lapatinib (Cell Titer-Glo); type: cell-based; conditions: Homo sapiens
Method: as §1, §2

[12] = system: MDA-MB-415 breast cancer cell line; assay: Growth inhibition by lapatinib (Cell Titer-Glo); type: cell-based; conditions: Homo sapiens
Method: as §1, §2

[13] = system: MCF7 breast cancer cell line; assay: Growth inhibition by lapatinib (Cell Titer-Glo); type: cell-based; conditions: Homo sapiens
Method: as §1, §2

[14] = system: UACC-893 breast cancer cell line; assay: Growth inhibition by lapatinib (Cell Titer-Glo); type: cell-based; conditions: Homo sapiens
Method: as §1, §2

[15] = system: HCC1419 breast cancer cell line; assay: Growth inhibition by lapatinib (Cell Titer-Glo); type: cell-based; conditions: Homo sapiens
Method: as §1, §2

[16] = system: BT-474 breast cancer cell line; assay: Growth inhibition by lapatinib (Cell Titer-Glo); type: cell-based; conditions: Homo sapiens
Method: as §1, §2

[17] = system: HCC202 breast cancer cell line; assay: Growth inhibition by lapatinib (Cell Titer-Glo); type: cell-based
Method: as §1, §2

[18] = system: HCC1937 breast cancer cell line; assay: Growth inhibition by lapatinib (Cell Titer-Glo); type: cell-based; conditions: Homo sapiens
Method: as §1, §2

[19] = system: HCC1428 breast cancer cell line; assay: Growth inhibition by lapatinib (Cell Titer-Glo); type: cell-based; conditions: Homo sapiens
Method: as §1, §2

[20] = system: CAMA-1 breast cancer cell line; assay: Growth inhibition by lapatinib (Cell Titer-Glo); type: cell-based; conditions: Homo sapiens
Method: as §1, §2

[21] = system: HCC1954 breast cancer cell line; assay: Growth inhibition by lapatinib (Cell Titer-Glo); type: cell-based; conditions: Homo sapiens
Method: as §1, §2

[22] = system: MDA-MB-231 breast cancer cell line; assay: Growth inhibition by lapatinib (Cell Titer-Glo); type: cell-based; conditions: Homo sapiens
Method: as §1, §2

[23] = system: SK-BR-3 breast cancer cell line; assay: Growth inhibition by lapatinib (Cell Titer-Glo); type: cell-based; conditions: Homo sapiens
Method: as §1, §2

[24] = system: UACC-812 breast cancer cell line; assay: Growth inhibition by lapatinib (Cell Titer-Glo); type: cell-based; conditions: Homo sapiens
Method: as §1, §2

[25] = system: MDA-MB-436 breast cancer cell line; assay: Growth inhibition by lapatinib (Cell Titer-Glo); type: cell-based; conditions: Homo sapiens
Method: as §1, §2

[26] = system: MDA-MB-157 breast cancer cell line; assay: Growth inhibition by lapatinib (Cell Titer-Glo); type: cell-based; conditions: Homo sapiens
Method: as §1, §2

[27] = system: MDA-MB-468 breast cancer cell line; assay: Growth inhibition by lapatinib (Cell Titer-Glo); type: cell-based; conditions: Homo sapiens
Method: as §1, §2

[28] = system: AU565 breast cancer cell line; assay: Growth inhibition by lapatinib (Cell Titer-Glo); type: cell-based; conditions: Homo sapiens
Method: as §1, §2

MDA-MB231 = conditions: Konecny et al.; cited from earlier work
[29] = 72 hours culture, read-out: IC50
[30] = read-out: Reference example 1 Sensitivity to lapatinib

**Q.** What does the source list for `CS(=O)(=O)CCNCc1ccc(-c2ccc3ncnc(Nc4ccc(OCc5cccc(F)c5)c(Cl)c4)c3c2)o1` [lapatinib, N-(3-chloro-4-[[(3-fluorophenyl)methyl]oxy]phenyl)-6-[5-([[2-(methylsulfonyl)ethyl]amino]methyl)-2-furanyl]-4-quinazolineamine bis(4-methylbenzenesulfonate)monohydrate]?
**A.** lapatinib sensitivity of cell line (MCF7): insensitive; lapatinib sensitivity of cell line (SK-Br-3): sensitive; lapatinib sensitivity of cell line (BT-474): sensitive; lapatinib sensitivity of cell line (T47D): insensitive; pIC50 [1, 29]: < 5.00; pIC50 [1, 30]: ≤ 6.00; pIC50 [2, 29]: < 5.00; pIC50 [2, 30]: ≤ 6.00; pIC50 [3, 29]: < 5.00; pIC50 [3, 30]: ≤ 6.00; pIC50 [4, 29]: < 5.00; pIC50 [4, 30]: ≤ 6.00; pIC50 [5, 29]: 6.68; pIC50 [5, 30]: > 6.00; pIC50 [6, 29]: < 5.00; pIC50 [6, 30]: ≤ 6.00; pIC50 [7, 29]: 6.51; pIC50 [7, 30]: > 6.00; pIC50 [8, 29]: < 5.00; pIC50 [8, 30]: ≤ 6.00; pIC50 [9, 29]: < 5.00; pIC50 [9, 30]: ≤ 6.00; pIC50 [10, 29]: < 5.00; pIC50 [10, 30]: ≤ 6.00; pIC50 [11, 29]: 5.32; pIC50 [11, 30]: ≤ 6.00; pIC50 [12, 29]: < 5.00; pIC50 [12, 30]: ≤ 6.00; pIC50 [13, 29]: < 5.00; pIC50 [13, 30]: ≤ 6.00; pIC50 [14, 29]: 6.32; pIC50 [14, 30]: > 6.00; pIC50 [15, 29]: 6.91; pIC50 [15, 30]: > 6.00; pIC50 [16, 29]: 7.10; pIC50 [16, 30]: > 6.00; pIC50 [17, 29]: 5.61; pIC50 [17, 30]: ≤ 6.00; pIC50 [18, 29]: < 5.00; pIC50 [18, 30]: ≤ 6.00; pIC50 [19, 29]: < 5.00; pIC50 [19, 30]: ≤ 6.00; pIC50 [20, 29]: < 5.00; pIC50 [20, 30]: ≤ 6.00; pIC50 [21, 29]: 5.83; pIC50 [21, 30]: ≤ 6.00; pIC50 [22, 29]: < 5.00; pIC50 [22, 30]: ≤ 6.00; pIC50 [23, 29]: 6.50; pIC50 [23, 30]: > 6.00; pIC50 [24, 29]: 6.31; pIC50 [24, 30]: > 6.00; pIC50 [25, 29]: < 5.00; pIC50 [25, 30]: ≤ 6.00; pIC50 [26, 29]: < 5.00; pIC50 [26, 30]: ≤ 6.00; pIC50 [27, 29]: 5.42; pIC50 [27, 30]: ≤ 6.00; pIC50 [28, 29]: 6.80; pIC50 [28, 30]: > 6.00; lapatinib sensitivity of cell line (MDA-MB231): insensitive
